How the values were obtained:
[1] = Distribution of 99mTc-Sn-AEDP and 85Sr in rabbits, carrier effect of AEDP (Example 4); type: in vivo, rabbit; conditions: 2 Hrs.
Procedure: Adult New Zealand albino rabbits having an average weight of 3.8 kg were utilized. Strontium-85 was employed as a standard for comparison. […] Each dosage is contained in a volume of 1 ml.
The animals were sacrificed serially from 1 to 24 hours after injection and the activities in major organs were determined by counting multiple samples from each organ in a scintillation well counter (the technetium-99m counts were corrected for the Compton contributions from the strontium-85 activity in the technetium-99m energy window). Multiple samples were counted from the tibia, femur, spine and pelvic bones; the total activity in the skeleton was estimated by assuming the whole skeleton consisted of equal proportions by weight of tibia, spine, femur and pelvis and that the skeletal mass was 10% of the body weight. The red marrow was sampled from the femur and the total marrow was assumed to be 2.2% of the total body weight. Similarly, blood volume was assumed to be 7% and the skeletal muscle 43% of the body weight. The whole liver and both kidneys were weighed and multiple samples from each were counted to measure the total activity in each organ.
In another series of experiments carried out as described in Example 2, the distribution of technetium 99m from its 99m-technetium-tin-methylene diphosphonate complex was determined in albino rabbits, again in comparison with strontium-85.
The distribution of technetium 99m from its 99m technetium-tin-1-amino-ethane-1,1-diphosphonate complex was determined as in Example 3 and compared with the distribution of strontium-85.

[2] = physical; cited from earlier work

99m technetium-tin-1-amino-ethane-1,1-diphosphonate complex [^99m Tc-Sn-AEDP]
Blood, % Dose in Whole Organ ([1]; AEDP 0.01 mg/kg): 1.18 % Dose | Blood, % dose/1% body weight ([1]; AEDP 0.01 mg/kg): 0.168 % Dose/1% Body weight | Bone Ave, % Dose/1% Body weight ([1]; AEDP 0.01 mg/kg): 7.60 % Dose/1% Body weight | Femur, % dose/1% body weight ([1]; AEDP 0.01 mg/kg): 7.54 % Dose/1% Body weight | Kidneys, % Dose in Whole Organ ([1]; AEDP 0.01 mg/kg): 1.59 % Dose | Kidneys, % dose/1% body weight ([1]; AEDP 0.01 mg/kg): 2.72 % Dose/1% Body weight | Liver, % Dose in Whole Organ ([1]; AEDP 0.01 mg/kg): 1.69 % Dose | Liver, % dose/1% body weight ([1]; AEDP 0.01 mg/kg): 0.617 % Dose/1% Body weight | Marrow, % Dose in Whole Organ ([1]; AEDP 0.01 mg/kg): 0.657 % Dose | Marrow, % dose/1% body weight ([1]; AEDP 0.01 mg/kg): 0.300 % Dose/1% Body weight | Muscle, % Dose in Whole Organ ([1]; AEDP 0.01 mg/kg): 0.988 % Dose | Muscle, % dose/1% body weight ([1]; AEDP 0.01 mg/kg): 0.037 % Dose/1% Body weight | Pelvis, % dose/1% body weight ([1]; AEDP 0.01 mg/kg): 8.53 % Dose/1% Body weight | Ratio of 99mTc/85Sr, Ave Bone ([1]; AEDP 0.01 mg/kg): 0.735 | Ratio of 99mTc/85Sr, Blood ([1]; AEDP 0.01 mg/kg): 0.406 | Ratio of 99mTc/85Sr, Femur ([1]; AEDP 0.01 mg/kg): 0.720 | Ratio of 99mTc/85Sr, Kidney ([1]; AEDP 0.01 mg/kg): 4.99 | Ratio of 99mTc/85Sr, Liver ([1]; AEDP 0.01 mg/kg): 3.00 | Ratio of 99mTc/85Sr, Marrow ([1]; AEDP 0.01 mg/kg): 1.27 | Ratio of 99mTc/85Sr, Muscle ([1]; AEDP 0.01 mg/kg): 0.338 | Ratio of 99mTc/85Sr, Pelvis ([1]; AEDP 0.01 mg/kg): 0.794 | Ratio of 99mTc/85Sr, Spine ([1]; AEDP 0.01 mg/kg): 0.689 | Ratio of 99mTc/85Sr, Tibia ([1]; AEDP 0.01 mg/kg): 0.710 | Spine, % dose/1% body weight ([1]; AEDP 0.01 mg/kg): 6.20 % Dose/1% Body weight | Tc/Sr ratio (Table 4) ([1]; AEDP 0.01 mg/kg): 0.736 | Tibia, % dose/1% body weight ([1]; AEDP 0.01 mg/kg): 8.13 % Dose/1% Body weight | Urine, % Dose ([1]; AEDP 0.01 mg/kg): 48.39 % Dose | W. Femur, % Dose in Whole Organ ([1]; AEDP 0.01 mg/kg): 2.34 % Dose | W. Tibia, % Dose in Whole Organ ([1]; AEDP 0.01 mg/kg): 1.96 % Dose | Blood, % Dose in Whole Organ ([1]; AEDP 0.05 mg/kg): 1.01 % Dose | Blood, % dose/1% body weight ([1]; AEDP 0.05 mg/kg): 0.144 % Dose/1% Body weight | Bone Ave, % Dose/1% Body weight ([1]; AEDP 0.05 mg/kg): 8.39 % Dose/1% Body weight | Femur, % dose/1% body weight ([1]; AEDP 0.05 mg/kg): 8.63 % Dose/1% Body weight | Kidneys, % Dose in Whole Organ ([1]; AEDP 0.05 mg/kg): 1.13 % Dose | Kidneys, % dose/1% body weight ([1]; AEDP 0.05 mg/kg): 1.83 % Dose/1% Body weight | Liver, % Dose in Whole Organ ([1]; AEDP 0.05 mg/kg): 0.806 % Dose | Liver, % dose/1% body weight ([1]; AEDP 0.05 mg/kg): 0.176 % Dose/1% Body weight | Marrow, % Dose in Whole Organ ([1]; AEDP 0.05 mg/kg): 0.549 % Dose | Marrow, % dose/1% body weight ([1]; AEDP 0.05 mg/kg): 0.250 % Dose/1% Body weight | Muscle, % Dose in Whole Organ ([1]; AEDP 0.05 mg/kg): 1.20 % Dose | Muscle, % dose/1% body weight ([1]; AEDP 0.05 mg/kg): 0.028 % Dose/1% Body weight | Pelvis, % dose/1% body weight ([1]; AEDP 0.05 mg/kg): 7.82 % Dose/1% Body weight | Ratio of 99mTc/85Sr, Ave Bone ([1]; AEDP 0.05 mg/kg): 0.683 | Ratio of 99mTc/85Sr, Blood ([1]; AEDP 0.05 mg/kg): 0.409 | Ratio of 99mTc/85Sr, Femur ([1]; AEDP 0.05 mg/kg): 0.687 | Ratio of 99mTc/85Sr, Kidney ([1]; AEDP 0.05 mg/kg): 3.30 | Ratio of 99mTc/85Sr, Liver ([1]; AEDP 0.05 mg/kg): 1.32 | Ratio of 99mTc/85Sr, Marrow ([1]; AEDP 0.05 mg/kg): 1.18 | Ratio of 99mTc/85Sr, Muscle ([1]; AEDP 0.05 mg/kg): 0.236 | Ratio of 99mTc/85Sr, Pelvis ([1]; AEDP 0.05 mg/kg): 0.684 | Ratio of 99mTc/85Sr, Spine ([1]; AEDP 0.05 mg/kg): 0.675 | Ratio of 99mTc/85Sr, Tibia ([1]; AEDP 0.05 mg/kg): 0.681 | Spine, % dose/1% body weight ([1]; AEDP 0.05 mg/kg): 7.80 % Dose/1% Body weight | Tc/Sr ratio (Table 4) ([1]; AEDP 0.05 mg/kg): 0.680 | Tibia, % dose/1% body weight ([1]; AEDP 0.05 mg/kg): 9.30 % Dose/1% Body weight | Urine, % Dose ([1]; AEDP 0.05 mg/kg): 44.21 % Dose | W. Femur, % Dose in Whole Organ ([1]; AEDP 0.05 mg/kg): 2.41 % Dose | W. Tibia, % Dose in Whole Organ ([1]; AEDP 0.05 mg/kg): 2.14 % Dose | Blood, % Dose in Whole Organ ([1]; AEDP 0.1 mg/kg): 0.96 % Dose | Blood, % dose/1% body weight ([1]; AEDP 0.1 mg/kg): 0.137 % Dose/1% Body weight | Bone Ave, % Dose/1% Body weight ([1]; AEDP 0.1 mg/kg): 7.51 % Dose/1% Body weight | Femur, % dose/1% body weight ([1]; AEDP 0.1 mg/kg): 7.93 % Dose/1% Body weight | Kidneys, % Dose in Whole Organ ([1]; AEDP 0.1 mg/kg): 0.913 % Dose | Kidneys, % dose/1% body weight ([1]; AEDP 0.1 mg/kg): 1.28 % Dose/1% Body weight | Liver, % Dose in Whole Organ ([1]; AEDP 0.1 mg/kg): 0.309 % Dose | Liver, % dose/1% body weight ([1]; AEDP 0.1 mg/kg): 0.083 % Dose/1% Body weight | Marrow, % Dose in Whole Organ ([1]; AEDP 0.1 mg/kg): 0.211 % Dose | Marrow, % dose/1% body weight ([1]; AEDP 0.1 mg/kg): 0.096 % Dose/1% Body weight | Muscle, % Dose in Whole Organ ([1]; AEDP 0.1 mg/kg): 1.46 % Dose | Muscle, % dose/1% body weight ([1]; AEDP 0.1 mg/kg): 0.034 % Dose/1% Body weight | Pelvis, % dose/1% body weight ([1]; AEDP 0.1 mg/kg): 6.24 % Dose/1% Body weight | Ratio of 99mTc/85Sr, Ave Bone ([1]; AEDP 0.1 mg/kg): 0.716 | Ratio of 99mTc/85Sr, Blood ([1]; AEDP 0.1 mg/kg): 0.409 | Ratio of 99mTc/85Sr, Femur ([1]; AEDP 0.1 mg/kg): 0.714 | Ratio of 99mTc/85Sr, Kidney ([1]; AEDP 0.1 mg/kg): 2.94 | Ratio of 99mTc/85Sr, Liver ([1]; AEDP 0.1 mg/kg): 0.490 | Ratio of 99mTc/85Sr, Marrow ([1]; AEDP 0.1 mg/kg): 0.621 | Ratio of 99mTc/85Sr, Muscle ([1]; AEDP 0.1 mg/kg): 0.205 | Ratio of 99mTc/85Sr, Pelvis ([1]; AEDP 0.1 mg/kg): 0.725 | Ratio of 99mTc/85Sr, Spine ([1]; AEDP 0.1 mg/kg): 0.705 | Ratio of 99mTc/85Sr, Tibia ([1]; AEDP 0.1 mg/kg): 0.721 | Spine, % dose/1% body weight ([1]; AEDP 0.1 mg/kg): 7.36 % Dose/1% Body weight | Tc/Sr ratio (Table 4) ([1]; AEDP 0.1 mg/kg): 0.717 | Tibia, % dose/1% body weight ([1]; AEDP 0.1 mg/kg): 8.50 % Dose/1% Body weight | Urine, % Dose ([1]; AEDP 0.1 mg/kg): 38.8 % Dose | W. Femur, % Dose in Whole Organ ([1]; AEDP 0.1 mg/kg): 2.38 % Dose | W. Tibia, % Dose in Whole Organ ([1]; AEDP 0.1 mg/kg): 2.18 % Dose | Blood, % Dose in Whole Organ ([1]; AEDP 0.5 mg/kg): 1.38 % Dose | Blood, % dose/1% body weight ([1]; AEDP 0.5 mg/kg): 0.197 % Dose/1% Body weight | Bone Ave, % Dose/1% Body weight ([1]; AEDP 0.5 mg/kg): 6.96 % Dose/1% Body weight | Femur, % dose/1% body weight ([1]; AEDP 0.5 mg/kg): 6.59 % Dose/1% Body weight | Kidneys, % Dose in Whole Organ ([1]; AEDP 0.5 mg/kg): 1.11 % Dose | Kidneys, % dose/1% body weight ([1]; AEDP 0.5 mg/kg): 2.11 % Dose/1% Body weight | Liver, % Dose in Whole Organ ([1]; AEDP 0.5 mg/kg): 0.216 % Dose | Liver, % dose/1% body weight ([1]; AEDP 0.5 mg/kg): 0.079 % Dose/1% Body weight | Marrow, % Dose in Whole Organ ([1]; AEDP 0.5 mg/kg): 0.23 % Dose | Marrow, % dose/1% body weight ([1]; AEDP 0.5 mg/kg): 0.104 % Dose/1% Body weight | Muscle, % Dose in Whole Organ ([1]; AEDP 0.5 mg/kg): 0.883 % Dose | Muscle, % dose/1% body weight ([1]; AEDP 0.5 mg/kg): 0.021 % Dose/1% Body weight | Pelvis, % dose/1% body weight ([1]; AEDP 0.5 mg/kg): 7.93 % Dose/1% Body weight | Ratio of 99mTc/85Sr, Ave Bone ([1]; AEDP 0.5 mg/kg): 0.644 | Ratio of 99mTc/85Sr, Blood ([1]; AEDP 0.5 mg/kg): 0.280 | Ratio of 99mTc/85Sr, Femur ([1]; AEDP 0.5 mg/kg): 0.628 | Ratio of 99mTc/85Sr, Kidney ([1]; AEDP 0.5 mg/kg): 2.47 | Ratio of 99mTc/85Sr, Liver ([1]; AEDP 0.5 mg/kg): 0.459 | Ratio of 99mTc/85Sr, Marrow ([1]; AEDP 0.5 mg/kg): 0.500 | Ratio of 99mTc/85Sr, Muscle ([1]; AEDP 0.5 mg/kg): 0.140 | Ratio of 99mTc/85Sr, Pelvis ([1]; AEDP 0.5 mg/kg): 0.692 | Ratio of 99mTc/85Sr, Spine ([1]; AEDP 0.5 mg/kg): 0.614 | Ratio of 99mTc/85Sr, Tibia ([1]; AEDP 0.5 mg/kg): 0.632 | Spine, % dose/1% body weight ([1]; AEDP 0.5 mg/kg): 6.05 % Dose/1% Body weight | Tc/Sr ratio (Table 4) ([1]; AEDP 0.5 mg/kg): 0.645 | Tibia, % dose/1% body weight ([1]; AEDP 0.5 mg/kg): 7.27 % Dose/1% Body weight | Urine, % Dose ([1]; AEDP 0.5 mg/kg): 48.85 % Dose | W. Femur, % Dose in Whole Organ ([1]; AEDP 0.5 mg/kg): 1.74 % Dose | W. Tibia, % Dose in Whole Organ ([1]; AEDP 0.5 mg/kg): 1.55 % Dose

[18FH] [fluorine-18]
half-life (radionuclide) [2]: 1.83 h

[99Tc] [technitium-99m]
half-life (radionuclide) [2]: 6 h

Source: US4115541A (priority 1975, dated 1978)
